Experimental data published in PubChem BioAssay AID1963840 (Molecular Pharmacology Branch, DTP, NCI, 2024).

Test system: 695427-040-R-J1-PDC complex spheroid viability
Test: Anticancer human tumor 695427-040-R-J1-PDC patient-derived colon adenocarcinoma cell line growth inhibition [POLQ]
Conditions: for IC50: curve of first compound; for viability, T/C: stronger effect = lower value
Outline: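 Growth inhibition in 3D: complex spheroids (tumor PDC, HUVEC, MSC) treated with POLQ inhibitor combinations; where Cmax unknown, highest tested concentration 10 microM, except SN-38 at 1 microM.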

[1] = second compound 0.0316 µM, first compound 0.0316 µM
[2] = second compound 0.0316 µM, first compound 0.1 µM
[3] = second compound 0.0316 µM, first compound 0.316 µM
[4] = second compound 0.0316 µM, first compound 1 µM
[5] = second compound 0.0316 µM, first compound 3.16 µM
[6] = second compound 0.0316 µM, first compound 10 µM
[7] = second compound 0.1 µM, first compound 0.0316 µM
[8] = second compound 0.1 µM, first compound 0.1 µM
[9] = second compound 0.1 µM, first compound 0.316 µM
[10] = second compound 0.1 µM, first compound 1 µM
[11] = second compound 0.1 µM, first compound 3.16 µM
[12] = second compound 0.1 µM, first compound 10 µM
[13] = second compound 0.316 µM, first compound 0.0316 µM
[14] = second compound 0.316 µM, first compound 0.1 µM
[15] = second compound 0.316 µM, first compound 0.316 µM
[16] = second compound 0.316 µM, first compound 1 µM
[17] = second compound 0.316 µM, first compound 3.16 µM
[18] = second compound 0.316 µM, first compound 10 µM
[19] = second compound 1 µM, first compound 0.0316 µM
[20] = second compound 1 µM, first compound 0.1 µM
[21] = second compound 1 µM, first compound 0.316 µM
[22] = second compound 1 µM, first compound 1 µM
[23] = second compound 1 µM, first compound 3.16 µM
[24] = second compound 1 µM, first compound 10 µM
[25] = second compound 3.16 µM, first compound 0.0316 µM
[26] = second compound 3.16 µM, first compound 0.1 µM
[27] = second compound 3.16 µM, first compound 0.316 µM
[28] = second compound 3.16 µM, first compound 1 µM
[29] = second compound 3.16 µM, first compound 3.16 µM
[30] = second compound 3.16 µM, first compound 10 µM
[31] = second compound 10 µM, first compound 0.0316 µM
[32] = second compound 10 µM, first compound 0.1 µM
[33] = second compound 10 µM, first compound 0.316 µM
[34] = second compound 10 µM, first compound 1 µM
[35] = second compound 10 µM, first compound 3.16 µM
[36] = second compound 10 µM, first compound 10 µM
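Note: spheroids exposed to compounds for seven days.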
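Throughout, for viability, T/C: 100% = DMSO vehicle control viability.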

CC1COCCN1c1cc(C2(O)CC3CCC(C2)O3)c2cnn(-c3ccn[nH]3)c2n1 (stereo not drawn) + COC1C(OC(N)=O)C(O)C(Oc2ccc3c(O)c(NC(=O)c4ccc(O)c(CC=C(C)C)c4)c(=O)oc3c2C)OC1(C)C
IC50 (second compound 0.0316 µM): 3.94 µM | IC50 (second compound 0.1 µM): 4.71 µM | IC50 (second compound 0.316 µM): 5.84 µM | IC50 (second compound 1 µM): 4.12 µM | IC50 (second compound 3.16 µM): 4.5 µM | IC50 (second compound 10 µM): 4.12 µM | viability, T/C [1]: 105% | viability, T/C [2]: 86.8% | viability, T/C [3]: 75.3% | viability, T/C [4]: 64.9% | viability, T/C [5]: 50.9% | viability, T/C [6]: 41.9% | viability, T/C [7]: 116% | viability, T/C [8]: 88.6% | viability, T/C [9]: 79.1% | viability, T/C [10]: 61.5% | viability, T/C [11]: 52.6% | viability, T/C [12]: 44.9% | viability, T/C [13]: 99.9% | viability, T/C [14]: 84.7% | viability, T/C [15]: 83.7% | viability, T/C [16]: 71.2% | viability, T/C [17]: 54.3% | viability, T/C [18]: 44.6% | viability, T/C [19]: 97.9% | viability, T/C [20]: 91% | viability, T/C [21]: 75.9% | viability, T/C [22]: 64% | viability, T/C [23]: 51% | viability, T/C [24]: 45% | viability, T/C [25]: 102% | viability, T/C [26]: 91.2% | viability, T/C [27]: 80% | viability, T/C [28]: 62.6% | viability, T/C [29]: 52.4% | viability, T/C [30]: 45.3% | viability, T/C [31]: 129% | viability, T/C [32]: 91.8% | viability, T/C [33]: 77.4% | viability, T/C [34]: 63.9% | viability, T/C [35]: 50.3% | viability, T/C [36]: 44.6%

CCc1cc2c(N3CCc4c(cc(Cn5ccnc5)cc4-c4cn(C)nc4C(F)(F)F)C3=O)ccnc2c(OC)n1 + COC1C(OC(N)=O)C(O)C(Oc2ccc3c(O)c(NC(=O)c4ccc(O)c(CC=C(C)C)c4)c(=O)oc3c2C)OC1(C)C
IC50 (second compound 0.0316 µM): > 10 µM | IC50 (second compound 0.1 µM): > 10 µM | IC50 (second compound 0.316 µM): > 10 µM | IC50 (second compound 1 µM): > 10 µM | IC50 (second compound 3.16 µM): > 10 µM | IC50 (second compound 10 µM): > 10 µM | viability, T/C [1]: 110% | viability, T/C [2]: 111% | viability, T/C [3]: 106% | viability, T/C [4]: 116% | viability, T/C [5]: 114% | viability, T/C [6]: 97.2% | viability, T/C [7]: 111% | viability, T/C [8]: 103% | viability, T/C [9]: 115% | viability, T/C [10]: 109% | viability, T/C [11]: 116% | viability, T/C [12]: 105% | viability, T/C [13]: 111% | viability, T/C [14]: 116% | viability, T/C [15]: 108% | viability, T/C [16]: 101% | viability, T/C [17]: 109% | viability, T/C [18]: 95.6% | viability, T/C [19]: 116% | viability, T/C [20]: 112% | viability, T/C [21]: 109% | viability, T/C [22]: 98.3% | viability, T/C [23]: 111% | viability, T/C [24]: 101% | viability, T/C [25]: 103% | viability, T/C [26]: 104% | viability, T/C [27]: 107% | viability, T/C [28]: 105% | viability, T/C [29]: 117% | viability, T/C [30]: 101% | viability, T/C [31]: 111% | viability, T/C [32]: 92.7% | viability, T/C [33]: 108% | viability, T/C [34]: 106% | viability, T/C [35]: 113% | viability, T/C [36]: 96.3%

COc1cc2cc(C(=O)CCC(=O)O)sc2cc1OC + COC1C(OC(N)=O)C(O)C(Oc2ccc3c(O)c(NC(=O)c4ccc(O)c(CC=C(C)C)c4)c(=O)oc3c2C)OC1(C)C
IC50 (second compound 0.0316 µM): > 10 µM | IC50 (second compound 0.1 µM): > 10 µM | IC50 (second compound 0.316 µM): > 10 µM | IC50 (second compound 1 µM): > 10 µM | IC50 (second compound 3.16 µM): > 10 µM | IC50 (second compound 10 µM): > 10 µM | viability, T/C [1]: 98.3% | viability, T/C [2]: 86.9% | viability, T/C [3]: 101% | viability, T/C [4]: 104% | viability, T/C [5]: 112% | viability, T/C [6]: 107% | viability, T/C [7]: 117% | viability, T/C [8]: 103% | viability, T/C [9]: 106% | viability, T/C [10]: 99.2% | viability, T/C [11]: 109% | viability, T/C [12]: 103% | viability, T/C [13]: 108% | viability, T/C [14]: 105% | viability, T/C [15]: 99.8% | viability, T/C [16]: 107% | viability, T/C [17]: 101% | viability, T/C [18]: 99.3% | viability, T/C [19]: 104% | viability, T/C [20]: 109% | viability, T/C [21]: 100% | viability, T/C [22]: 106% | viability, T/C [23]: 101% | viability, T/C [24]: 103% | viability, T/C [25]: 102% | viability, T/C [26]: 94.2% | viability, T/C [27]: 97.4% | viability, T/C [28]: 106% | viability, T/C [29]: 103% | viability, T/C [30]: 93.8% | viability, T/C [31]: 102% | viability, T/C [32]: 102% | viability, T/C [33]: 114% | viability, T/C [34]: 120% | viability, T/C [35]: 104% | viability, T/C [36]: 109%

COc1cccc2c1C(=O)c1c(O)c3c(c(O)c1C2=O)CC(O)(C(=O)CO)CC3OC1CC(N)C(O)C(C)O1 (stereo not drawn) + Cc1cccc(N(C)C(=O)C2C(O)CCN2c2nc(C)cc(C(F)(F)F)c2C#N)c1
IC50 (second compound 0.0316 µM): > 10 µM | IC50 (second compound 0.1 µM): > 10 µM | IC50 (second compound 0.316 µM): > 10 µM | IC50 (second compound 1 µM): > 10 µM | IC50 (second compound 3.16 µM): 8.57 µM | IC50 (second compound 10 µM): 4.41 µM | viability, T/C [1]: 97.7% | viability, T/C [2]: 96.5% | viability, T/C [3]: 89.7% | viability, T/C [4]: 75.1% | viability, T/C [5]: 67.7% | viability, T/C [6]: 51% | viability, T/C [7]: 105% | viability, T/C [8]: 88.3% | viability, T/C [9]: 95.6% | viability, T/C [10]: 69% | viability, T/C [11]: 66.4% | viability, T/C [12]: 55.9% | viability, T/C [13]: 103% | viability, T/C [14]: 91.8% | viability, T/C [15]: 89.1% | viability, T/C [16]: 72.1% | viability, T/C [17]: 78.6% | viability, T/C [18]: 55.7% | viability, T/C [19]: 97.5% | viability, T/C [20]: 83.1% | viability, T/C [21]: 87.3% | viability, T/C [22]: 75.2% | viability, T/C [23]: 67.5% | viability, T/C [24]: 53.9% | viability, T/C [25]: 96.6% | viability, T/C [26]: 87.9% | viability, T/C [27]: 83.3% | viability, T/C [28]: 75.7% | viability, T/C [29]: 64.9% | viability, T/C [30]: 46.8% | viability, T/C [31]: 81.6% | viability, T/C [32]: 78.9% | viability, T/C [33]: 73.3% | viability, T/C [34]: 57.7% | viability, T/C [35]: 56.4% | viability, T/C [36]: 41.8%
